Laboratory results reported in US5434186A, “Carboxylic acid leukotriene B4 antagonists” (Hoffmann-La Roche Inc., priority 1993, dated 1995).
Where two headings read alike, the source gives them in different places.

Key:
[1] = tested on: LTB4 mediated calcium fluxes in human neutrophils; assay: Calcium Flux Assay (inhibition of LTB4 mediated calcium fluxes in human neutrophils); type: cell-based; conditions: Neutrophil; Fura2 labelled human neutrophils, 2.4 nM LTB4
Description: (§1) Human neutrophils are prepared from citrated or heparinized blood. The blood was diluted 1:1 with Hank's balanced salt solution (HBSS) minus calcium and magnesium and underlayed with 10 ml lymphocyte separation medium (Organon Teknika), followed by centrifugation at 500× g for 30 min., at room temperature. Supernatants are removed down to the red blood cell pellet. HBSS minus calcium and magnesium are added to give 25 ml. To this are added 25 ml 6% dextran in 0.85% NaCl. Samples are mixed and allowed to stand 20 min at room temperature. Supernatants are removed and centrifuged at 500× g for 5 min at 4° C. Pellets are resuspended with 20 ml 0.2% saline for 20 sec followed by the addition of 20 ml 1.6% saline. Samples are centrifuged at 500× g for 5 min at 4° C. The lysis is repeated and the cells (90-95% neutrophils) are resuspended at 2× 10^6 cell/ml in GEY's salt solution.
LTB4 induced changes in intracellular calcium concentration are measured using Fura2 labelled human neutrophils. Cells at a concentration of 2-5×10^6 /ml are labelled with 5 μM Fura2 for 30 minutes in Hank's balanced salt solution without calcium and magnesium. The cells are washed and resuspended at a final concentration of 1-2×10^7 cells/ml in Gey's solution. Calcium fluxes are initiated by the addition of 2.4 nM LTB4. Test compounds at appropriate concentrations are added to the cells just prior to the addition of LTB4. […] Fluorescence measurements are made in a Perkin Elmer model LS-5B spectrofluorimeter at a temperature setting of 37° C. Calcium concentrations are determined using the ratio method (ratio of cell fluorescence to media fluorescence).
When representative compounds of formula I of the invention were tested, the results set forth in Table H and expressed as inhibition of LTB4 mediated calcium fluxes in human neutrophils, were obtained.

[2] = tested on: LTB4 -induced bronchoconstriction; assay: Guinea Pig Bronchoconstriction In Vivo (LTB4-induced); set-up: species or system guinea pig (Hartley strain); conditions: Cavia porcellus, iv, i.v. five minutes prior to LTB4 (1 μg/kg i.v.), read-out: ID50 (mg/kg), i.v., LTB4-induced bronchoconstriction
Description: Male guinea pigs (Hartley strain) weighing 300 to 500 g are anesthetized with urethane (2 g/kg) intraperitoneally and a polyethylene cannula is inserted into the jugular vein for drug administration. Tracheal pressure is recorded from a cannula inserted into the trachea and connected to a Gould P23ID pressure transducer. After surgical preparation of the animals, a period of time is allowed for pulmonary functions to stabilize. The test compound is administered intravenously five minutes prior to leukotriene B4 administration according to the following protocol: Animals are paralyzed with succinylcholine (1.2 mg/kg i.v.) and mechanically respirated (Harvard rodent respirator) at 40 breaths/minute and 2.5 cc tidal volume. Propranolol (0.1 mg/kg) is then administered intravenously one minute prior to leukotriene B4 administration. Animals are then challenged with an intermediate constrictory dose of leukotriene B4 (1 μg/kg) delivered intravenously.
The change (cm H2 O) between pre and peak ventilatory pressure readings is averaged for five control and five drug treated animals. The percent inhibition is calculated from the formula:
((Control-Drug Treated)/Control)×100
When representative compounds of formula I of the invention were utilized as the test compounds the following results were obtained: […]

[3] = tested on: LTB4 -induced bronchoconstriction; assay: as above; set-up: species or system guinea pig (Hartley strain); conditions: Cavia porcellus, po, read-out: ID50 (mg/kg), p.o., LTB4-induced bronchoconstriction
LTB4 Receptor = target: T1, LTB4 Receptor (Homo sapiens, UniProt Q15722); assay: LTB4 Receptor Binding Assay (inhibition of 3H-LTB4 binding, human neutrophils); conditions: 0.5 nM 3H-LTB4, 45 minutes on ice, isolated human neutrophils
T1 construct: Isolated human neutrophils in Gey's salt solution; endogenous in cells; host or cells: human neutrophils isolated from blood (90-95% neutrophils)
Description: Binding assays can be performed in microtiter wells. Isolated human neutrophils in Gey's salt solution are incubated on ice for 45 minutes with 0.5 nM ^3 H-LTB4 in the presence or absence of test compounds. Assays are terminated by adding 12 ml ice cold 50 mM Tris (pH 7.4) followed by rapid filtration under vacuum through GF/C filters. Radioactivity is determined by scintillation counting. Non specific binding is defined as the binding not displaced by 100 fold excess of unlabelled LTB4. Specific binding is defined as the difference between total binding and non-specific binding. Non linear analysis of the binding data is performed using LIGAND (Munson and Rodbard, 1980). Ki (Inhibition Constant) values were determined using the Cheng-Prusoff relationship (Cheng and Prusoff, 1973).
as §1

T1 sequence (Q15722 whole entry): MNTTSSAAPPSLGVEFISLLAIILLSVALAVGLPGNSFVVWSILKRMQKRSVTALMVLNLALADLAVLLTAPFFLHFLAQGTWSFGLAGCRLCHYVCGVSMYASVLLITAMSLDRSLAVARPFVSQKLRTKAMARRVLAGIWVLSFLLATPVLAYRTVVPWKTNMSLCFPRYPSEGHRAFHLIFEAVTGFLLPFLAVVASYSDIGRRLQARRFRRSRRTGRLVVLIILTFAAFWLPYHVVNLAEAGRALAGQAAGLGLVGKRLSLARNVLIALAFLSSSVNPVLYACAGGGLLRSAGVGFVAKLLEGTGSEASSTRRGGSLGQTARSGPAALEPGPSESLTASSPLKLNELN

IC50 [1]	Ki (LTB4 Receptor)	Structure (SMILES)	ED50 [2]	ED50 [3]
300 nM	–	CCCc1c(OCCCCCOc2cc3c(cc2C(C)=O)CCC(C(=O)O)O3)ccc2c1OCCC2=O (racemic) [Example 11, rac-6-Acetyl-7-[5-[(3,4-dihydro-4-oxo-8-propyl-2H-1-benzopyran-7-yl)oxy]pentyloxy]-3,4-dihydro-2H-1-benzopyran-2-carboxylic Acid]	–	–
26 nM	–	CCCc1c(OCCCCCOc2ccccc2CCC(=O)O)ccc2c1OCCC2=O [Example 4, 2-[5-[(3,4-Dihydro-4-oxo-8-propyl-2H-1-benzopyran-7-yl)oxy]pentyloxy]benzenepropanoic Acid]	0.66 mg/kg	> 10 mg/kg
70 nM	36 nM	CCCc1c(OCCCCCOc2ccc(Cl)cc2CCC(=O)O)ccc2c1OCCC2=O [Example 17, 5-Chloro-2-[5-[(3,4-dihydro-4-oxo-8-propyl-2H-1-benzopyran-7-yl)oxy]pentyloxy]benzenepropanoic Acid]	2.02 mg/kg	–
1 nM	3 nM	CCCc1c(OCCCCCCOc2ccc(C(=O)c3cccc(C(=O)O)c3)cc2CCC(=O)O)ccc2c1OCCC2=O [Example 22, 5-[(3-Carboxyphenyl)carbonyl]-2-[6-[(3,4-dihydro-4-oxo-8-propyl-2H-1-benzopyran-7-yl)oxy]hexyloxy]benzenepropanoic Acid]	–	–
–	–	CCCc1c(OCCCCCCc2ccccc2CCC(=O)O)ccc2c1OCCC2=O [Example 37, 2-[6-[(3,4-Dihydro-4-oxo-8-propyl-2H-1-benzopyran-7-yl)oxy]hexyl]benzenepropanoic Acid]	0.45 mg/kg	> 10 mg/kg
–	150 nM	O=C(O)CCc1ccccc1OCCCCCOc1ccc2c(c1Cc1ccccc1)OCCC2=O [Example 73, 2-[5-[[3,4-Dihydro-4-oxo-8-(phenylmethyl)-2H-1-benzopyran-7-yl]oxy]pentyloxy]benzenepropanoic Acid]	0.13 mg/kg	> 10 mg/kg
–	607 nM	CCCCCc1c(OCCCCCOc2ccccc2CCC(=O)O)ccc2c1OCCC2=O [Example 118, 2-[5-[(3,4-Dihydro-4-oxo-8-pentyl-2H-1-benzopyran-7-yl)oxy]pentyloxy]benzenepropanoic Acid]	0.18 mg/kg	> 10 mg/kg
–	30 nM	CCCc1c(OCCCCCOc2ccccc2CCCC(=O)O)ccc2c1OCCC2=O [Example 145, 2-[5-[(3,4-Dihydro-4-oxo-8-propyl-2H-1-benzopyran-7-yl)oxy]pentyloxy]benzenebutanoic Acid]	0.56 mg/kg	> 10 mg/kg
–	200 nM	CCCc1c(OCCCCCOc2ccccc2CCCCC(=O)O)ccc2c1OCCC2=O [Example 147, 2-[5-[(3,4-Dihydro-4-oxo-8-propyl-2H-1-benzopyran-7-yl)oxy]pentyloxy]benzenepentanoic Acid]	1.18 mg/kg	–
3 nM	1 nM	CCCc1c(OCCCCCCc2cccc(OCC(=O)O)c2CCC(=O)O)ccc2c1OCCC2=O [Example 152, 2-(Carboxymethoxy)-6-[6-[(3,4-dihydro-4-oxo-8-propyl-2H-1-benzopyran-7-yl)oxy]hexyl]benzenepropanoic Acid]	2 mg/kg	–
–	3 nM	CCCc1c(OCCCCCOc2ccc(CCC(=O)O)cc2CCC(=O)O)ccc2c1OCCC2=O [Example 163, 4-[5-[(3,4-Dihydro-4-oxo-8-propyl-2H-1-benzopyran-7-yl)oxy]pentyloxy]-1,3-benzenedipropanoic Acid]	3.11 mg/kg	–
–	1 nM	CCCc1c(OCCCCCCc2cccc(OCCCC(C)(C)C(=O)O)c2CCC(=O)O)ccc2c1OCCC2=O [Example 174, 2-[(4-Carboxy-4-methylpentyl)oxy]-6-[6-[(3,4-dihydro-4-oxo-8-propyl-2H-1-benzopyran-7-yl)oxy]hexyl]benzenepropanoic Acid]	0.22 mg/kg	1.1 mg/kg
–	95 nM	O=C(O)CCc1ccccc1OCCCCCOc1ccc2c(c1CCCc1ccccc1)OCCC2=O [Example 195, 2-[[5-[[3,4-Dihydro-4-oxo-8-(3-phenylpropyl)-2H-1-benzopyran-7-yl]oxy]pentyl]oxy]benzenepropanoic Acid]	0.04 mg/kg	5.8 mg/kg
–	200 nM	CCCc1c(OCCCCCCc2cccc(OCCCCC(=O)N(C)C)c2CCC(=O)N(C)C)ccc2c1OCCC2=O [Example 196, 2-[6-[(3,4-Dihydro-4-oxo-8-propyl-2H-1-benzopyran-7-yl)oxy]hexyl]-6-[[5-(dimethylamino)-5-oxopentyl]oxy]-N,N-dimethylbenzenepropanamide]	0.62 mg/kg	–
–	1 nM	O=C(O)CCCCCOc1cccc(CCCCCCOc2ccc3c(c2CCCc2ccccc2)OCCC3=O)c1CCC(=O)O [Example 200, 2-[(5-Carboxypentyl)oxy]-6-[6-[[3,4-dihydro-4-oxo-8-(3-phenylpropyl)-2H-1-benzopyran-7-yl]oxy]hexyl]benzenepropanoic Acid]	0.06 mg/kg	0.16 mg/kg
–	0.8 nM	CCCc1c(OCCCCCCc2ccc(C(=O)CCCC(=O)O)cc2CCC(=O)O)ccc2c1OCCC2=O [Example 211, 3-(2-Carboxyethyl)-4-[6-[(3,4-dihydro-4-oxo-8-propyl-2H-1-benzopyran-7-yl)oxy]hexyl]-δ-oxobenzenepentanoic Acid]	2.39 mg/kg	–
–	3 nM	CCCc1c(OCCCCCOc2ccc(CCCCC(=O)O)cc2CCC(=O)O)ccc2c1OCCC2=O [Example 215, 3-(2-Carboxyethyl)-4-[[5-[(3,4-dihydro-4-oxo-8-propyl-2H-1-benzopyran-7-yl)oxy]pentyl]oxy]benzenepentanoic Acid]	0.24 mg/kg	4.65 mg/kg
–	1 nM	CCCc1c(OCCCCCCc2ccc(CCCCC(=O)O)cc2CCC(=O)O)ccc2c1OCCC2=O [Example 219, 3-(2-Carboxyethyl)-4-[6-[(3,4-dihydro-4-oxo-8-propyl-2H-1-benzopyran-7-yl)oxy]hexyl]benzenepentanoic Acid]	0.08 mg/kg	> 10 mg/kg
–	1 nM	CCCc1c(OCCCCCOc2ccc3ccc(OCC(=O)O)cc3c2CCC(=O)O)ccc2c1OCCC2=O [Example 226, 7-(Carboxymethoxy)-2-[[5-[(3,4-dihydro-4-oxo-8-propyl-2H-1-benzopyran-7-yl)oxy]pentyl]oxy]-1-naphthalenepropanoic Acid]	4.4 mg/kg	–
–	0.8 nM	CCCc1c(OCCCCCOc2ccc3cc(OCC(=O)O)ccc3c2CCC(=O)O)ccc2c1OCCC2=O [Example 231, 6-(Carboxymethoxy)-2-[[5-[(3,4-dihydro-4-oxo-8-propyl-2H-1-benzopyran-7-yl)oxy]pentyl]oxy]-1-naphthalenepropanoic Acid]	1.36 mg/kg	–
–	2 nM	CCCc1c(OCCCCCOc2ccc3nc(CCC(=O)O)ccc3c2CCC(=O)O)ccc2c1OCCC2=O [Example 238, 6-[[5-[(3,4-Dihydro-4-oxo-8-propyl-2H-1-benzopyran-7-yl)oxy]pentyl]oxy]-2,5-quinolinedipropanoic Acid]	1.24 mg/kg	–

Structure (SMILES)	IC50 [1]	Ki (LTB4 Receptor)	ED50 [2]	ED50 [3]
CCCc1c(OCCCCOc2ccc(C(=O)c3cccc(C(=O)O)c3)cc2CCC(=O)O)ccc2c1OCCC2=O [Example 24, 5-[(3-Carboxyphenyl)carbonyl]-2-[4-[(3,4-dihydro-4-oxo-8-propyl-2H-1-benzopyran-7-yl)oxy]butoxy]benzenepropanoic Acid]	11 nM	15 nM	–	–
